Data as given in the NIST ThermoML archive (doi:10.1021/acs.jced.5b00536).
Several values for one entry are separate records, joined by “and”; a condition that tells them apart may be missing. Equal values may be shown once.

Experiment: xn = mol fraction of the nth substance listed
Conditions: x2 = 0.79; for electrical conductivity / mass density: 100 kPa, Liquid; for electrical conductivity: Alternating current cell with electrodes; for mass density: Buoyancy - hydrostatic balance; for surface tension liquid-gas: Maximal bubble pressure

[Ca+2].[F-].[F-] [calcium fluoride] + [F-].[Li+]
Conditions	electrical conductivity [S/m]	mass density	surface tension liquid-gas [mN/m]
1131.2 K	0.05865	–	–
1131.4 K	–	2066.7 kg/m3	–
1131.9 K	–	2066.7 kg/m3	–
1132.7 K	–	2065.5 kg/m3	–
1132.8 K	–	2066 kg/m3	–
1133 K	0.05876	–	–
1133.3 K	–	2064.9 kg/m3	–
1134.1 K	–	2064.2 kg/m3	–
1134.2 K	–	2064.2 kg/m3	–
1134.7 K	0.05888	–	–
1135 K	–	2063.5 kg/m3	–
1135.3 K	–	2062.4 kg/m3 and 2063 kg/m3	–
1135.7 K	–	2062.4 kg/m3	–
1136.2 K	–	2061.7 kg/m3	–
1136.4 K	0.05912	–	–
1136.5 K	–	2060.6 kg/m3	–
1136.8 K	–	2060.6 kg/m3	–
1136.9 K	–	2061.1 kg/m3	–
1137.2 K	–	2060 kg/m3	–
1137.5 K	–	2061.6 kg/m3	–
1137.8 K	–	2061 kg/m3	–
1138.1 K	0.05927	–	–
1138.2 K	–	2060.4 kg/m3	–
1138.7 K	–	2059.8 kg/m3	–
1139.3 K	–	2059.2 kg/m3	–
1139.9 K	0.05965	–	–
1140 K	–	2059.1 kg/m3	–
1140.4 K	–	2058.5 kg/m3	–
1140.8 K	–	2057.9 kg/m3	–
1141.1 K	–	2057.3 kg/m3	–
1141.4 K	–	2056.7 kg/m3	–
1141.5 K	0.05989	–	–
1142 K	–	2056.6 kg/m3	–
1142.7 K	–	2056 kg/m3	–
1143.2 K	0.06013	–	–
1143.4 K	–	2055.4 kg/m3	–
1143.5 K	–	2054.8 kg/m3	–
1144.2 K	–	2054.7 kg/m3	–
1144.4 K	–	2054.1 kg/m3	–
1144.7 K	–	2053.5 kg/m3	–
1144.9 K	0.06033	–	–
1145.2 K	–	2053.5 kg/m3	–
1145.5 K	–	2052.9 kg/m3	–
1146 K	–	2061.1 kg/m3	–
1146.5 K	0.06057	2061.1 kg/m3	–
1146.9 K	–	2060.5 kg/m3	–
1147.5 K	–	2059.8 kg/m3	–
1147.8 K	–	2059.2 kg/m3	–
1148 K	–	2059.2 kg/m3	–
1148.2 K	0.06057	–	–
1148.6 K	–	2058.6 kg/m3	–
1148.9 K	–	2058 kg/m3	–
1149 K	–	2058 kg/m3	–
1149.7 K	–	2057.4 kg/m3	–
1149.9 K	0.06079	–	–
1150.3 K	–	2056.7 kg/m3	–
1150.8 K	–	2056.7 kg/m3	–
1151 K	–	–	215.9
1151.4 K	0.06095	2056.1 kg/m3	–
1152 K	–	2055.4 kg/m3	–
1152.6 K	–	2055.4 kg/m3	–
1152.9 K	–	2054.8 kg/m3	–
1153 K	0.06111	–	–
1153.8 K	–	2054.1 kg/m3	–
1154.1 K	–	2053.5 kg/m3	–
1154.5 K	0.06131	–	–
1154.6 K	–	2053.5 kg/m3	–
1154.8 K	–	2052.3 kg/m3 and 2052.9 kg/m3	–
1155.5 K	–	2051.7 kg/m3	–
1155.6 K	–	2051.7 kg/m3	–
1155.9 K	–	2051.1 kg/m3	–
1156.2 K	0.0616	–	–
1156.5 K	–	2050.5 kg/m3	–
1156.6 K	–	2049.9 kg/m3 and 2051 kg/m3	–
1157.1 K	–	2050.4 kg/m3	–
1157.5 K	–	2050.4 kg/m3	–
1157.7 K	0.06168	2049.8 kg/m3	–
1158.8 K	–	2049.1 kg/m3	–
1159 K	–	2048.5 kg/m3	–
1159.1 K	–	2048.5 kg/m3	–
1159.2 K	0.06195	–	–
1159.9 K	–	2047.9 kg/m3	–
1160.2 K	–	2047.3 kg/m3	–
1160.7 K	0.06201	–	–
1161.3 K	–	2046.6 kg/m3	–
1161.9 K	–	2046 kg/m3	–
1162.1 K	0.062142	–	–
1162.8 K	–	2045.9 kg/m3	–
1163.2 K	–	2045.3 kg/m3	–
1163.6 K	0.062335	2044.7 kg/m3	–
1164.3 K	–	2044.6 kg/m3	–
1164.7 K	–	2048.4 kg/m3	–
1164.8 K	0.062395	–	–
1164.9 K	–	2048.4 kg/m3	–
1165.1 K	–	2048.4 kg/m3	–
1165.4 K	–	2047.8 kg/m3	–
1166.2 K	–	2047.1 kg/m3	–
1166.5 K	–	2046.5 kg/m3	–
1167.2 K	–	2046.4 kg/m3	–
1167.7 K	–	2045.8 kg/m3	–
1167.9 K	–	2045.3 kg/m3	–
1168.5 K	–	2045.2 kg/m3	–
1168.8 K	–	2044.6 kg/m3	–
1169 K	–	2044.6 kg/m3	–
1169.3 K	–	2044 kg/m3	–
1169.9 K	–	2043.4 kg/m3	–
1170 K	–	–	216
1170.1 K	–	2042.8 kg/m3	–
1170.6 K	–	2042.7 kg/m3	–
1171.2 K	–	2042.1 kg/m3	–
1171.5 K	–	2041.5 kg/m3	–
1171.9 K	–	2040.9 kg/m3	–
1172.2 K	–	2040.9 kg/m3	–
1172.9 K	–	2040.3 kg/m3	–
1173.2 K	–	2039.7 kg/m3	–
1173.3 K	–	2039.1 kg/m3	–
1173.6 K	–	2039.1 kg/m3	–
1173.8 K	–	2038.5 kg/m3	–
1174.9 K	–	2043.9 kg/m3	–
1175.4 K	–	2043.3 kg/m3	–
1176 K	–	2042.7 kg/m3	–
1176.3 K	–	2042.1 kg/m3	–
1177.1 K	–	2042 kg/m3	–
1177.5 K	–	2041.4 kg/m3	–
1178.4 K	–	2040.7 kg/m3	–
1179.4 K	–	2040 kg/m3	–
1179.7 K	–	2040 kg/m3	–
1180.3 K	–	2039.4 kg/m3	–
1180.5 K	–	2038.3 kg/m3 and 2038.8 kg/m3	–
1180.8 K	–	2037.7 kg/m3	–
1181 K	–	2037.1 kg/m3	–
1181.2 K	–	2037.1 kg/m3	–
1181.6 K	–	2036.5 kg/m3	–
1182.2 K	–	2035.9 kg/m3	–
1182.5 K	–	2035.8 kg/m3	–
1182.8 K	–	2035.2 kg/m3	–
1183.2 K	–	2034.6 kg/m3	–
1183.9 K	–	2034.6 kg/m3	–
1184.1 K	–	2034 kg/m3	–
1184.5 K	–	2033.9 kg/m3	–
1185.8 K	–	2036.5 kg/m3	–
1186.6 K	–	2035.9 kg/m3	–
1187 K	–	2035.3 kg/m3	–
1187.8 K	–	2035.2 kg/m3	–
1188 K	–	–	213.8
1188.4 K	–	2034.6 kg/m3	–
1189.1 K	–	2033.9 kg/m3	–
1189.4 K	–	2033.9 kg/m3	–
1189.9 K	–	2033.3 kg/m3	–
1190.2 K	–	2032.7 kg/m3	–
1190.8 K	–	2032.6 kg/m3	–
1191.6 K	–	2032 kg/m3	–
1192.4 K	–	2031.4 kg/m3	–
1192.9 K	–	2030.7 kg/m3	–
1193.2 K	–	2030.7 kg/m3	–
1193.7 K	–	2030.1 kg/m3	–
1194.1 K	–	2029.5 kg/m3	–
1194.4 K	–	2029.5 kg/m3	–
1194.5 K	–	2028.9 kg/m3	–
1194.7 K	–	2028.3 kg/m3	–
1195.3 K	–	2028.3 kg/m3	–
1195.7 K	–	2027.7 kg/m3	–
1196 K	–	2027.1 kg/m3	–
1196.4 K	–	2027 kg/m3	–
1197.1 K	–	2026.4 kg/m3	–
1197.6 K	–	2026.3 kg/m3	–
1198.3 K	–	2025.7 kg/m3	–
1198.8 K	–	2025.1 kg/m3	–
1199.3 K	–	2025 kg/m3	–
1199.6 K	–	2024.4 kg/m3	–
1200 K	–	2024.4 kg/m3	–
1200.6 K	–	2023.8 kg/m3	–
1200.8 K	–	2023.2 kg/m3	–
1201.2 K	–	2023.2 kg/m3	–
1201.6 K	–	2022.6 kg/m3	–
1202.1 K	–	2022 kg/m3	–
1202.3 K	–	2020.8 kg/m3	–
1202.5 K	–	2020.8 kg/m3	–
1203 K	–	2020.2 kg/m3	–
1203.4 K	–	2020.1 kg/m3	–
1203.7 K	–	2019.6 kg/m3	–
